In patent US5380359A, “Cosmetics based on naturally derived melanin-coated pigments” (Kyowa Hakko Kogyo Co., Ltd., priority 1992, dated 1995):

Test: Anti-oxidizing property: lipid peroxide elimination rate (Determiner LPO, cumene hydroperoxide)
Format: biochemical
Settings: concentration of 0.014%
Method: Purified water was added to 0.1 g of microbial melanin, synthetic melanin or sepia melanin and 0.1 g of sodium hydroxide to prepare 100 ml of solution, and the pH was adjusted to 7 with hydrochloric acid.
To 0.1 g of dl-α-tocopherol was added ethanol to prepare 100 ml of solution.
To 0.1 g of ascorbic acid was added purified water to prepare 100 ml of solution.
To 5.02 mg of an 80% cumene hydroperoxide (hereinafter abbreviated to CPO) solution was added purified water to prepare 100 ml of solution (264 nmol/ml).
The microbial melanin solution, the ascorbic acid solution, the dl-α-tocopherol solution, the synthetic melanin solution or the sepia melanin solution was added to a system in which CPO was reacted with a methylene blue derivative in the presence of hemoglobin as a catalyst, using Determiner LPO (product of Kyowa Medex Co., Ltd.) as a reaction reagent, thereby producing an equimolar amount of methylene blue which developed the color of the system. The anti-oxidizing property of the microbial melanin, ascorbic acid, dl-α-tocopherol, the synthetic melanin and the sepia melanin was determined on the basis of the degree of inhibition of the production of methylene blue. […]
In the equation, As indicates the absorbance of the test sample, Astd the absorbance of the standard sample, and AB the absorbance of the blank test sample. […]

Cc1c(C)c2c(c(C)c1O)CCC(C)(CCCC(C)CCCC(C)CCCC(C)C)O2 (racemic) [dl-α-tocopherol]
Lipid peroxide elimination rate: 72.4%

O=C1O[C@H]([C@@H](O)CO)C(O)=C1O [Ascorbic acid, ascorbic acid]
Lipid peroxide elimination rate: 97.4%
